From US20020137929A1, “1 - (3-heterocyclylphenyl) isothiourea, -isourea, -guanidine and -amidine herbicidal agents” (Intellectual Property Department, BASF Aktiengesellschaft, priority 1998, published 2002)

What was measured:
AMBEL (Ragweed, Common) [1] = assay: Postemergence herbicidal evaluation; type: in vivo, Ambrosia artemisifolia; settings: postemergence
Outline: (§1)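 Scores (0–9) reflect plant stand, vigor, malformation, size, chlorosis and general appearance relative to control, read 4 to 5 weeks after treatment and averaged where tests were repeated. Application: about 0.0156–0.500 kg/ha sprayed at 40 psi onto two-week seedlings.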

CASOB (Sicklepod) [2] = assay: Postemergence herbicidal evaluation; type: in vivo, Cassia obtusifolia; settings: postemergence
Outline: as §1

GALAP (Galium) [3] = assay: Postemergence herbicidal evaluation; type: in vivo, Galium aparine; settings: postemergence
Outline: as §1

[4] = system: IPOHE (Morningglory, Ivyleaf); assay: Postemergence herbicidal evaluation; type: in vivo, Ipomoea hederacea; settings: postemergence
Outline: as §1

SETVI (Foxtail, Green) [5] = assay: Postemergence herbicidal evaluation; type: in vivo, Setaria viridis; settings: postemergence
Outline: as §1

ORYSAT (Rice, Tebonnet) = assay: Postemergence herbicidal evaluation; type: in vivo, Oryza sativa, (L.) Tebonnet; settings: postemergence
Outline: as §1

[6] = system: TRZAWR (Wheat, Winter, cv Riband); assay: Postemergence herbicidal evaluation; type: in vivo, Triticum aestivum; settings: postemergence
Outline: as §1

ZEAMX (Corn, Field) = assay: Postemergence herbicidal evaluation; type: in vivo, Zea mays; settings: postemergence
Outline: as §1

AMBEL (Ragweed, Common) [7] = assay: Preemergence herbicidal evaluation; type: in vivo, Ambrosia artemisifolia; settings: rated 4-5 weeks after treatment
Outline: (§2)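 Preemergence soil application of compound, sprayed in aqueous acetone at rates equivalent to about 0.0156 to 0.500 kg per hectare onto freshly sown cups. Plant response was judged by eye on a 0-9 scale four to five weeks later.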

CASOB (Sicklepod) [8] = assay: Preemergence herbicidal evaluation; type: in vivo, Cassia obtusifolia; settings: rated 4-5 weeks after treatment
Outline: as §2

[9] = system: CHEAL (Lambsquarters, Common); assay: Preemergence herbicidal evaluation; type: in vivo, Chenopodium album; settings: rated 4-5 weeks after treatment
Outline: as §2

GALAP (Galium) [10] = assay: Preemergence herbicidal evaluation; type: in vivo, Galium aparine; settings: rated 4-5 weeks after treatment
Outline: as §2

ECHCG (Barnyardgrass) = assay: Preemergence herbicidal evaluation; type: in vivo, Echinochloa crus-galli; settings: rated 4-5 weeks after treatment
Outline: as §2

SETVI (Foxtail, Green) [11] = assay: Preemergence herbicidal evaluation; type: in vivo, Setaria viridis; settings: rated 4-5 weeks after treatment
Outline: as §2

[12] = system: TRZAWR (Wheat, Winter, cv Riband); assay: Preemergence herbicidal evaluation; type: in vivo, Triticum aestivum; settings: rated 4-5 weeks after treatment
Outline: as §2

[13] = system: ECHORC (Watergrass (Calif.)); assay: Preemergence weed control under flooded paddy conditions; type: in vivo, Echinochloa oryzoides; settings: rated 3-4 weeks after treatment
Outline: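 Flooded-pot preemergence screen with silt loam and seeds in the upper 0.5 cm. Dose about 0.0313 to 0.500 kg/ha, delivered into flood water; visual 0-9 score after 3 to 4 weeks.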

[14] = system: SAGPY (Arrowhead (Pygmaea)); assay: as above; type: in vivo, Sagittaria pygmaea; settings: rated 3-4 weeks after treatment
Outline: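 Greenhouse paddy assay. Acetone/water (50/50 v/v) solutions dosed into flood water, equivalent to about 0.0313 to 0.500 kg/ha active ingredient, over seeds planted 0.5 cm deep in silt loam. Score: 0-9 visual, based on stand, vigor, malformation, size and chlorosis, 3 to 4 weeks after treatment.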

C=CCN1C(=O)C(CC(=O)NS(=O)(=O)C(C)C)SC1=Nc1cc(-n2c(=O)cc(C(F)(F)F)n(C)c2=O)c(F)cc1Cl (stereo not shown) [Compound 118, 3-Allyl-2-{{2-chloro-5-[3,6-dihydro-3-methyl-2,6-dioxo-4-(trifluoromethyl)-1(2H)-pyrimidinyl]-4-fluorophenyl}imino}-N-(isopropylsulfonyl)-4-oxo-5-thiazolidineacetamide]
herbicidal rating AMBEL (AMBEL (Ragweed, Common) [1]; rate 0.0158 kg/ha): 0.0
herbicidal rating AMBEL (AMBEL (Ragweed, Common) [1]; rate 0.0315 kg/ha): 2.0
herbicidal rating AMBEL (AMBEL (Ragweed, Common) [1]; rate 0.0630 kg/ha): 2.0
herbicidal rating CASOB (CASOB (Sicklepod) [2]; rate 0.0158 kg/ha): 0.0
herbicidal rating CASOB (CASOB (Sicklepod) [2]; rate 0.0315 kg/ha): 0.0
herbicidal rating CASOB (CASOB (Sicklepod) [2]; rate 0.0630 kg/ha): 0.0
herbicidal rating GALAP (GALAP (Galium) [3]; rate 0.0158 kg/ha): 0.0
herbicidal rating GALAP (GALAP (Galium) [3]; rate 0.0315 kg/ha): 0.0
herbicidal rating GALAP (GALAP (Galium) [3]; rate 0.0630 kg/ha): 1.0
herbicidal rating IPOHE ([4]; rate 0.0158 kg/ha): 1.0
herbicidal rating IPOHE ([4]; rate 0.0315 kg/ha): 7.0
herbicidal rating IPOHE ([4]; rate 0.0630 kg/ha): 9.0
herbicidal rating SETVI (SETVI (Foxtail, Green) [5]; rate 0.0158 kg/ha): 0.0
herbicidal rating SETVI (SETVI (Foxtail, Green) [5]; rate 0.0315 kg/ha): 0.0
herbicidal rating SETVI (SETVI (Foxtail, Green) [5]; rate 0.0630 kg/ha): 4.0
herbicidal rating ORYSAT (ORYSAT (Rice, Tebonnet); rate 0.0158 kg/ha): 2.0
herbicidal rating ORYSAT (ORYSAT (Rice, Tebonnet); rate 0.0315 kg/ha): 2.0
herbicidal rating ORYSAT (ORYSAT (Rice, Tebonnet); rate 0.0630 kg/ha): 2.0
herbicidal rating TRZAWR ([6]; rate 0.0158 kg/ha): 2.0
herbicidal rating TRZAWR ([6]; rate 0.0315 kg/ha): 2.0
herbicidal rating TRZAWR ([6]; rate 0.0630 kg/ha): 2.0
herbicidal rating ZEAMX (ZEAMX (Corn, Field); rate 0.0158 kg/ha): 3.5
herbicidal rating ZEAMX (ZEAMX (Corn, Field); rate 0.0315 kg/ha): 4.0
herbicidal rating ZEAMX (ZEAMX (Corn, Field); rate 0.0630 kg/ha): 4.5
Preemergence herbicidal rating AMBEL (AMBEL (Ragweed, Common) [7]; rate 0.0625 kg/ha): 0.0
Preemergence herbicidal rating AMBEL (AMBEL (Ragweed, Common) [7]; rate 0.1250 kg/ha): 0.0
Preemergence herbicidal rating AMBEL (AMBEL (Ragweed, Common) [7]; rate 0.2500 kg/ha): 6.0
Preemergence herbicidal rating CASOB (CASOB (Sicklepod) [8]; rate 0.0625 kg/ha): 0.0
Preemergence herbicidal rating CASOB (CASOB (Sicklepod) [8]; rate 0.2500 kg/ha): 4.0
Preemergence herbicidal rating CHEAL ([9]; rate 0.0625 kg/ha): 6.0
Preemergence herbicidal rating CHEAL ([9]; rate 0.1250 kg/ha): 9.0
Preemergence herbicidal rating CHEAL ([9]; rate 0.2500 kg/ha): 9.0
Preemergence herbicidal rating GALAP (GALAP (Galium) [10]; rate 0.0625 kg/ha): 1.0
Preemergence herbicidal rating GALAP (GALAP (Galium) [10]; rate 0.1250 kg/ha): 6.0
Preemergence herbicidal rating GALAP (GALAP (Galium) [10]; rate 0.2500 kg/ha): 7.0
Preemergence herbicidal rating ECHCG (ECHCG (Barnyardgrass); rate 0.0625 kg/ha): 0.0
Preemergence herbicidal rating ECHCG (ECHCG (Barnyardgrass); rate 0.1250 kg/ha): 0.0
Preemergence herbicidal rating ECHCG (ECHCG (Barnyardgrass); rate 0.2500 kg/ha): 0.0
Preemergence herbicidal rating SETVI (SETVI (Foxtail, Green) [11]; rate 0.0625 kg/ha): 0.0
Preemergence herbicidal rating SETVI (SETVI (Foxtail, Green) [11]; rate 0.1250 kg/ha): 0.0
Preemergence herbicidal rating SETVI (SETVI (Foxtail, Green) [11]; rate 0.2500 kg/ha): 2.0
Preemergence herbicidal rating TRZAWR ([12]; rate 0.0625 kg/ha): 0.0
Preemergence herbicidal rating TRZAWR ([12]; rate 0.1250 kg/ha): 0.0
Preemergence herbicidal rating TRZAWR ([12]; rate 0.2500 kg/ha): 0.0
herbicidal effect rating, ECHORC ([13]; 0.0313 kg/ha): 0.0
herbicidal effect rating, ECHORC ([13]; 0.0625 kg/ha): 0.0
herbicidal effect rating, ECHORC ([13]; 0.1250 kg/ha): 4.0
herbicidal effect rating, ECHORC ([13]; 0.2500 kg/ha): 6.0
herbicidal effect rating, SAGPY ([14]; 0.0313 kg/ha): 0.0
herbicidal effect rating, SAGPY ([14]; 0.0625 kg/ha): 0.0
herbicidal effect rating, SAGPY ([14]; 0.1250 kg/ha): 3.0
herbicidal effect rating, SAGPY ([14]; 0.2500 kg/ha): 3.0
